Laboratory results from patent publication US20230339886A1 (University of Florida Research Foundation, Incorporated, priority 2020, published 2023).
Read-outs that look alike come from different tables or passages of the source.

Molecular target: T1, REV-ERBα LBD (human; residues 281-614 Δ324-422) (Homo sapiens, UniProt P20393, DEL324-422)
T1 construct: 6×Histag-REV-ERBα LBD (human; residues 281-614 Δ324-422); made in house; host or cells: Escherichia coli
Experiment: TR-FRET corepressor interaction assay (REV-ERBα LBD, FITC-SMRT peptide)
Assay type: biochemical
Procedure, shortened: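 Compound serial dilutions (in DMSO, triplicate) incubated 2 h at 4 °C; Tb donor excited at 340 nm, emission read at 495 nm and FITC acceptor at 520 nm. TR-FRET ratio (520/495 nm) plotted against ligand concentration and fitted to a sigmoidal dose-response curve.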

[1] = Table 2, read-out: REVERBα agonism (EC50 class, FRET assay)
[2] = FITC-SMRT peptide, read-out: REVERBα agonism (EC50 class, FRET assay)

T1 sequence (P20393 with tags, fused parts or gaps DEL324-422): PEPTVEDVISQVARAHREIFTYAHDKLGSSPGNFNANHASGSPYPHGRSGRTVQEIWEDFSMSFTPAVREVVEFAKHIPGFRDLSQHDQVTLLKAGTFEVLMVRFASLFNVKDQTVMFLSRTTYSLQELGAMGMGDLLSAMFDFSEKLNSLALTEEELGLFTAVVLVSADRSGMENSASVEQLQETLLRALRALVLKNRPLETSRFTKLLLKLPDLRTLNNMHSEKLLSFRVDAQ
T1 sequence (Q9Y618 2335-2356 partner limits assumed): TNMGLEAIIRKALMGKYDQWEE

SMILES	EC50 [1] [nM]	EC50 [2] [nM]
CN(C)S(=O)(=O)NCCn1cc(CC(C)(C)C)c2cc(-c3ccncc3)ccc21 [Example 189, N-{2-[5-(pyridin-4-yl)-3-(2,2-dimethylpropyl)-1H-indol-1-yl]ethyl}-N,N-dimethylsulfuric diamide]	< 500	–
CN(C)CCn1cc(CCNS(=O)(=O)N(C)C)c2ccc(Br)cc21 [Example 160, [2-(6-bromo-3-{2-[(dimethylsulfamoyl)amino]ethyl}-1H-indol-1-yl)ethyl]dimethylamine]	> 3000	–
CC(C)Cn1cc(C(C)CNS(=O)(=O)C(C)C)c2ccc(-c3ccccc3)cc21 (stereo not drawn) [Compound 254]	> 3000	–
CC(C)Cc1cn(C2CCN(S(=O)(=O)C(C)C)C2)c2ccc(-c3ccncc3)cc12 (stereo not drawn) [Compound 44]	500 to 3000	–
CC(C)Cn1cc([C@H](NS(=O)(=O)C2CCC2)C(F)(F)F)c2ccc(-c3ccccc3C(F)(F)F)cc21 [Example 499, (S)—N-(2,2,2-trifluoro-1-(1-isobutyl-6-(2-(trifluoromethyl)phenyl)-1H-indol-3-yl)ethyl)cyclobutanesulfonamide]	–	< 500
N#CC1(Cn2cc([C@H](NS(=O)(=O)C3CCC3)C(F)(F)F)c3cc(F)c(-c4ccccc4C(F)(F)F)cc32)CC1 [Example 392, [(1S)-1-[1-[(1-cyanocyclopropyl)methyl]-5-fluoro-6-[2-(trifluoromethyl)phenyl]indol-3-yl]-2,2,2-trifluoro-ethyl]cyclobutanesulfonamide]	< 500	–
CC(C)(C)Cn1cc([C@H](NS(=O)(=O)C2CCC2)C(F)(F)F)c2ccc(-c3c(F)cccc3Cl)cc21 [Example 411, (S)—N-(1-(6-(2-chloro-6-fluorophenyl)-1-neopentyl-1H-indol-3-yl)-2,2,2-trifluoroethyl)cyclobutanesulfonamide]	< 500	–
CC(C)Cn1cc(CCNS(=O)(=O)N(C)C)c2ccc(Br)cc21 [Compound 97, ({2-[6-bromo-1-(2-methylpropyl)-1H-indol-3-yl]ethyl}sulfamoyl)dimethylamine]	< 500	–
CC(C)(C)Cn1cc([C@H](NS(=O)(=O)C2CC2)C(F)(F)F)c2ccc(-c3ccccn3)cc21 [Example 469, (S)—N-(2,2,2-trifluoro-1-(1-neopentyl-6-(pyridin-2-yl)-1H-indol-3-yl)ethyl)cyclopropanesulfonamide]	–	500 to 3000
CC(C)Cn1cc(C2CCCN(S(=O)(=O)N(C)C)C2)c2ccc(-c3ccccc3)cc21 (stereo not drawn) [Example 61, 3-(1-isobutyl-6-phenyl-1H-indol-3-yl)-N,N-dimethylpiperidine-1-sulfonamide]	500 to 3000	–
CC(C)(C)Cc1cn(CCNS(=O)(=O)C2CC2)c2ccc(-c3ccc4ccccc4c3)cc12 [Example 210, N-(2-(5-(naphthalen-2-yl)-3-neopentyl-1H-indol-1-yl)ethyl)cyclopropane-sulfonamide]	500 to 3000	–
CC(C)Cn1cc([C@H](NS(=O)(=O)C2CC2)C(F)(F)F)c2ccc(Br)cc21 [Example 306, (S)—N-(1-(6-bromo-1-isobutyl-1H-indol-3-yl)-2,2,2-trifluoroethyl)cyclopropanesulfonamide]	< 500	–
CC(C)Cn1cc([C@H](NS(=O)(=O)C2CC2)C(F)(F)F)c2cc(F)c(-c3ccnc4c3CCCC4)cc21 [Example 454, N-[(1S)-2,2,2-trifluoro-1-[5-fluoro-1-isobutyl-6-(5,6,7,8-tetrahydroquinolin-4-yl)indol-3-yl]ethyl]cyclopropanesulfonamide]	–	< 500
CC(C)Cn1cc(CCNS(=O)(=O)N(C)C)c2ccc(OC(C)(C)C)cc21 [Example 119, N′-{2-[6-tert-butoxy-1-(2-methylpropyl)-1H-indol-3-yl]ethyl}-N,N-dimethylsulfuric diamide]	500 to 3000	–
CC(C)(C)Cc1cn(CCNS(=O)(=O)C2CC2)c2ccc(-c3ccc(F)c(F)c3)cc12 [Compound 226]	500 to 3000	–
CN(C)S(=O)(=O)NCCc1c[nH]c2cc(-c3ccncc3)ccc12 [Compound 40, dimethyl({2-[6-(pyridin-4-yl)-1H-indol-3-yl]ethyl}sulfamoyl)amine]	> 3000	–
Cc1cn[nH]c1-c1cc2c(cc1F)c([C@H](NS(=O)(=O)C1CC1)C(F)(F)F)cn2CC(C)C [Example 456, (S)—N-(2,2,2-trifluoro-1-(5-fluoro-1-isobutyl-6-(4-methyl-1H-pyrazol-5-yl)-1H-indol-3-yl)ethyl)cyclopropanesulfonamide]	–	500 to 3000
COC(C)(C)Cn1cc([C@H](NS(=O)(=O)C2CC2)C(F)(F)F)c2cc(F)c(-c3ccccc3C(F)(F)F)cc21 [Example 475, N-[(1S)-2,2,2-trifluoro-1-[5-fluoro-1-(2-methoxy-2-methyl-propyl)-6-[2-(trifluoromethyl)phenyl]indol-3-yl]ethyl]cyclopropanesulfonamide]	–	< 500

SMILES	EC50 [1] [nM]	EC50 [2] [nM]
CC(C)Cn1cc(CCNS(=O)(=O)N(C)C)c2ccc(-c3ccccc3C(=O)OC(C)(C)C)cc21 [Example 79]	500 to 3000	–
CC(C)(C)Cn1cc([C@H](NS(=O)(=O)N2CCC2)C(F)(F)F)c2cc(F)c(-c3ccccc3C(F)(F)F)cc21 [Example 346, (S)—N-(2,2,2-trifluoro-1-(5-fluoro-1-neopentyl-6-(2-(trifluoromethyl)phenyl)-1H-indol-3-yl)ethyl)azetidine-1-sulfonamide]	< 500	–
CC(C)C(=O)n1cc(CCNS(=O)(=O)N(C)C)c2ccc(-c3ccncc3)cc21 [Compound 43, 1-(3-{2-[(dimethylsulfamoyl)amino]ethyl}-6-(pyridin-4-yl)-1H-indol-1-yl)-2-methylpropan-1-one]	< 500	–
CC(C)Cn1cc(CCNS(=O)(=O)N(C)C)c2ccc(-c3cccc(C#N)c3)cc21 [Example 59, N-{2-[6-(3-cyanophenyl)-1-(2-methylpropyl)-1H-indol-3-yl]ethyl}-N,N-dimethylsulfuric diamide]	< 500	–
COC(C)(C)Cn1cc([C@H](NS(=O)(=O)C2CCC2)C(F)(F)F)c2ccc(-c3ccccc3C(F)(F)F)nc21 [Example 413, (S)—N-(2,2,2-trifluoro-1-(1-(2-methoxy-2-methylpropyl)-6-(2-(trifluoromethyl)phenyl)-1H-pyrrolo[2,3-b]pyridin-3-yl)ethyl)cyclobutanesulfonamide]	< 500	–
CCOC(=O)[C@@H](NS(=O)(=O)C1CC1)c1cn(CC(C)(C)C)c2cc(-c3ccccc3C(F)(F)F)ccc12 [Example 430, ethyl (S)-2-(cyclopropanesulfonamido)-2-(1-neopentyl-6-(2-(trifluoromethyl)phenyl)-1H-indol-3-yl)acetate]	–	> 3000
O=S(=O)(NCc1cn(CC2CCCC2)c2cc(-c3ccccc3C(F)(F)F)c(F)cc12)C1CC1 [Compound 280]	< 500	–
CC(C)c1ccc2c([C@H](NS(=O)(=O)C3CC3)C(F)(F)F)cn(CC(C)(C)C)c2c1 [Example 335, (S)—N-(2,2,2-trifluoro-1-(6-isopropyl-1-neopentyl-1H-indol-3-yl)ethyl)cyclopropanesulfonamide]	< 500	–
CC(C)n1cc(CCNS(=O)(=O)N(C)C)c2ccc(-c3ccncc3)cc21 [Example 129, N′-{2-[6-(pyridin-4-yl)-1-isopropyl-1H-indol-3-yl]ethyl}-N,N-dimethylsulfuric diamide]	500 to 3000	–
CC(C)Cn1cc(C(C)NS(=O)(=O)C2CC2)c2ccc(-c3ccccc3C(F)(F)F)cc21 (stereo not drawn) [Example 204, N-(1-(1-isobutyl-6-(2-(trifluoromethyl)phenyl)-1H-indol-3-yl)ethyl)cyclopropanesulfonamide]	< 500	–
CC(C)(C)Cn1cc([C@H](NS(=O)(=O)C2CC2)C(F)(F)F)c2ccc(-c3c(Cl)cncc3Cl)cc21 [Example 470, (S)—N-(1-(6-(3,5-dichloropyridin-4-yl)-1-neopentyl-1H-indol-3-yl)-2,2,2-trifluoroethyl)cyclopropanesulfonamide]	–	< 500
CC(C)C(=O)n1cc(C(C)NS(=O)(=O)N(C)C)c2ccc(-c3ccccc3Cl)cc21 (stereo not drawn) [Example 196, 1-[6-(2-chlorophenyl)-3-{1-[(dimethylsulfamoyl)amino]ethyl}-1H-indol-1-yl]-2-methylpropan-1-one]	< 500	–
Cc1cccc(C(F)(F)F)c1-c1ccc2c([C@H](NS(=O)(=O)C3CC3)C(F)(F)F)cn(CC(C)(C)C)c2c1 [Example 463, (S)—N-(2,2,2-trifluoro-1-(6-(2-methyl-6-(trifluoromethyl)phenyl)-1-neopentyl-1H-indol-3-yl)ethyl)cyclopropanesulfonamide]	–	< 500
CC(C)Cn1cc(CCNS(=O)(=O)N(C)C)c2ccc(C3CCNCC3)cc21 [Compound 102, dimethyl({2-[1-(2-methylpropyl)-6-(piperidin-4-yl)-1H-indol-3-yl]ethyl}sulfamoyl)amine]	> 3000	–
CC(C)(C)Cn1cc([C@H](NS(=O)(=O)C2CC2)C(F)(F)F)c2cc(C(F)(F)F)c(Br)cc21 [Example 376, (S)—N-(1-(6-bromo-1-neopentyl-5-(trifluoromethyl)-1H-indol-3-yl)-2,2,2-trifluoroethyl)cyclopropanesulfonamide]	> 3000	–
CC(C)(C)Cn1cc(CCNS(=O)(=O)C2CC2)c2ccc(-c3ccc(F)cc3C(F)(F)F)cc21 [Example 395, N-(2-(6-(4-fluoro-2-(trifluoromethyl)phenyl)-1-neopentyl-1H-indol-3-yl)ethyl)cyclopropanesulfonamide]	< 500	–
CC(C)(C)Cn1cc([C@H](NS(=O)(=O)C2CCC2)C(F)F)c2ccc(-c3ccccc3C(F)(F)F)nc21 [Example 518, (S)—N-(2,2-difluoro-1-(1-neopentyl-6-(2-(trifluoromethyl)phenyl)-1H-pyrrolo[2,3-b]pyridin-3-yl)ethyl)cyclobutanesulfonamide]	–	< 500
CC(C)Cc1cn(CCS(=O)(=O)C(C)(C)C)c2ccc(Br)cc12 [Example 174, 5-bromo-1-(2-(tert-butylsulfonyl)ethyl)-3-isobutyl-1H-indole]	500 to 3000	–
